What was measured:
[1] = test system: HCA-1 cells; assay: CXCL12-induced HCA-1 chemotaxis (invasion assay); assay type: cell-based, murine; conditions: concentration up to 1 µM
Description: (§1) [3-(2-Aminomethyl-oxazol-4-yl)-propyl]-[3-(tert-butoxycarbonyl-cyclohexyl-amino)- propyl]-carbamic acid tert-butyl ester (Linker 1). A mixture of L1-6 (10.35 g, 16.5 mmol) and 10% Pd/C (4.66 g) in iso-propanol (310 mL) was stirred under H2(g) at 50 °C for 15 h.
(§2) The resulting mixture was filtered, and the filtrate was concentrated to afford Linker 1 (7.23 g, […]
(§3) Wound healing and invasion assays
(§4) Cell migration ability was measured by wound healing assay. HCA-1 cells (5 × 10^5 cells per well) were seeded onto 12-well plates and incubated overnight. When the cell confluence exceeded 90%, scratch wounds were made by scraping a straight line in the middle of the cell layer using the tip of a 1000 µL pipette. After washing the cells with PBS, the cells were incubated in serum-free medium under different treatment conditions (control, 100 ng/mL CXCL12, and 10 µM BPRCX807 with 100 ng/mL CXCL12). Then, 3-4 fields (40×) of each group were randomly chosen and observed by a microscope (IX83, Olympus, Japan) at time points of 0 h, 24h, 48 h and 72 h. For the invasion assay, HCA-1 cells were suspended in RPMI 1640 containing 0.5% FBS and then preincubated with the indicated concentrations of compounds for 10 min at 37 °C. […] After 17.5 h of incubation at 37 °C, the cells in both chambers of the inserts were measured with a CellTiter-Glo Luminescent Cell Viability Assay (Promega, Wisconsin). […]

[2] = test system: HCA-1 cells; assay: Wound healing assay; assay type: cell-based, murine; conditions: CXCL12 100 ng/mL, BPRCX807 10 μM, 24, 48, 72 h
Description: as §1, §2, §3, §4

[3] = molecular target: CXCR4 (Homo sapiens, UniProt P61073); assay: Human CXCR4-binding assay ([125I]CXCL12 displacement, hCXCR4-transfected HEK293T membranes); design: expressed in transfected cells; host or cells: HEK293T
Chain of CXCR4 (P61073 whole entry): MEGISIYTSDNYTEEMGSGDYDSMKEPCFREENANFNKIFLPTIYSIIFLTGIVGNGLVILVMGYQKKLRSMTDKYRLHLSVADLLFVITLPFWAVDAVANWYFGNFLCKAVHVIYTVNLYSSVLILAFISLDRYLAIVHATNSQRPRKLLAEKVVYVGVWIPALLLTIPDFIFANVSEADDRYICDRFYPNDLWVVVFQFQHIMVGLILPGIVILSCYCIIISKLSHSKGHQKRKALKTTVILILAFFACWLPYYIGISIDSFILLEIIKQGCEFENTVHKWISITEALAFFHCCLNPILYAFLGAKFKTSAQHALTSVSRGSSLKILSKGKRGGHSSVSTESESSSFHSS
Description: concentrations of BPRCX807 in incubation buffer (50 mM HEPES-NaOH, pH 7.4, 100 mM NaCl, 5 mM MgCl2, 1 mM CaCl2, 0.5% BSA). Nonspecific binding was defined in the […]
The reaction mixtures were incubated for 1.5 h at 30 °C and then transferred to a 96 -well GF/B filter plate (Merck Millipore, Billerica, MA).
The reaction mixtures were terminated by manifold filtration and washed with ice-cold wash buffer (50 mM HEPES-NaOH, pH 7.4, 100 mM NaCl) four times. The radioactivity bound to the filter was measured with a TopCount instrument (PerkinElmer, Waltham, MA). The IC50 values were determined as the concentrations of the compounds required to inhibit 50% of the specific binding of [125I]CXCL12 and were calculated by nonlinear regression (GraphPad software, San Diego, CA).
Pharmacokinetics and toxicological studies
Male C57BL/6 mice, each weighing 23.4–25.4 g, were quarantined for 1 week before drug treatment. Compounds dissolved in 100% saline were individually given to mice (n = 3) subcutaneously (6 mg/kg; nonfasted mice). […] The plasma samples were analyzed by liquid chromatography– tandem mass spectrometry (LC–MS/MS), and the data were calculated by a standard noncompartmental method using the Kinetica software program (InnaPhase). […]

With `Cc1cc(NC2CCN(C(=O)CCNCC(=O)O)CC2)nc(NCc2nc(CCCNCCCNC3CCCCC3)co2)n1` [BPRCX807] the CXCL12-induced cell migration [1] was “significant decrease”, the “CXCL12-induced wound closure rate” value [2] was “significantly suppressed” and the IC50 [3] was 40.4 ± 8 nM.

From publication PMC8020795 (Proceedings of the National Academy of Sciences of the …, 2021)
